Results as given in patent US6908926B1, “Substituted imidazoles, their preparation and use” (Novo Nordisk A/S, priority 1999, dated 2005).

melting point [°C]	SMILES
166 to 168	CC(C)c1ccc(COC(=O)N2CCc3nc[nH]c3C2)cc1.O=C(O)C(=O)O [Example 31, 4,5,6,7-Tetrahydroimidazo[4,5-c]pyridine-5-carboxylic Acid 4-isopropylbenzyl Ester Oxalate]
169 to 171	Cc1cccc(COC(=O)N2CCc3[nH]cnc3C2)c1.O=C(O)C(=O)O [Example 21, 4,5,6,7-Tetrahydroimidazo[4,5-c]pyridine-5-carboxylic Acid 3-methylbenzyl Ester Oxalate]
171 to 173	CCc1ccc(COC(=O)N2CCc3nc[nH]c3C2)cc1.O=C(O)C(=O)O [Example 34, 4,5,6,7-Tetrahydroimidazo[4,5-c]pyridine-5-carboxylic Acid 4-ethylbenzyl Ester Oxalate]
163 to 165	COc1cccc(COC(=O)N2CCc3[nH]cnc3C2)c1.O=C(O)C(=O)O [Example 19, 4,5,6,7-Tetrahydroimidazo[4,5-c]pyridine-5-carboxylic Acid 3-methoxybenzyl Ester Oxalate]
173 to 175	O=C(O)C(=O)O.O=C(OCc1ccccc1Cl)N1CCc2nc[nH]c2C1 [Example 42, 4,5,6,7-Tetrahydroimidazo[4,5-c]pyridine-5-carboxylic Acid 2-chlorobenzyl Ester Oxalate]
173 to 175	O=C(O)C(=O)O.O=C(OCCc1cccs1)N1CCc2nc[nH]c2C1 [Example 36, 4,5,6,7-Tetrahydroimidazo[4,5-c]pyridine-5-carboxylic Acid 2-thiophen-2-ylethyl Ester Oxalate]
155 to 157	Cc1cccc(CCOC(=O)N2CCc3[nH]cnc3C2)c1.O=C(O)C(=O)O [Example 24, 4,5,6,7-Tetrahydroimidazo[4,5-c]pyridine-5-carboxylic Acid 2-(3-methylphenyl)ethyl Ester Oxalate]
174 to 176	O=C(O)C(=O)O.O=C(OCCC1CCCCC1)N1CCc2nc[nH]c2C1 [Example 40, 4,5,6,7-Tetrahydroimidazo[4,5-c]pyridine-5-carboxylic Acid 2-cyclohexylethyl Ester Oxalate]
176 to 178	O=C(O)C(=O)O.O=C(OCC1CCCCC1)N1CCc2nc[nH]c2C1 [Example 41, 4,5,6,7-Tetrahydroimidazo[4,5-c]pyridine-5-carboxylic Acid Cyclohexylmethyl Ester Oxalate]
193 to 194	O=C(O)C(=O)O.O=C(OCCc1ccsc1)N1CCc2nc[nH]c2C1 [Example 37, 4,5,6,7-Tetrahydroimidazo[4,5-c]pyridine-5-carboxylic Acid 2-thiophen-3-ylethyl Ester Oxalate]
176 to 178	Cc1ccc(COC(=O)N2CCc3[nH]cnc3C2)c(C)c1.O=C(O)C(=O)O [Example 28, 4,5,6,7-Tetrahydroimidazo[4,5-c]pyridine-5-carboxylic Acid 2,4-dimethylbenzyl Ester Oxalate]
